Literature values, collected in patent US8859560B2, “Treating attention deficit hyperactivity disorder with NHE inhibitors” (The Research Foundation of State University of New York, priority 2012, dated 2014).

Experiments:
[1] = system: sodium/hydrogen exchanger (NHE) subtypes; settings: for NHE subtype selectivity of inhibition: prior knowledge from Masereel et al. 2003
[2] = pediatric patients, extended-release tablets (Jain et al. 2011)

SMILES | NHE subtype selectivity of inhibition [1] | Inhibition of plasma membrane NHEs ([1]; plasma membrane NHEs (NHE1-NHE5)) | Efficacy as drug for ADHD [2]
N=C(N)NC(=O)c1nc(Cl)c(N)nc1N [amiloride] | limited NHE subtype selectivity | – | –
CC(C)c1ccc(C(=O)NC(=N)N)cc1S(C)(=O)=O [cariporide] | selectively inhibits NHE1 | – | –
CC(=Cc1cc(C)ccc1C=C(C)C(=O)NC(=N)N)C(=O)N=C(C)C [S3226] | selectively inhibits NHE3 | – | –
C=C[C@H]1C[N@@]2CC[C@H]1C[C@H]2[C@H](O)c1ccnc2ccc(OC)cc12 [quinine] | selectively inhibits NHE7 | – | –
Clc1cccc(Cl)c1N=C1NCCN1 [clonidine] | – | modest inhibitor | moderately efficacious
COc1ccc2c3c([nH]c2c1)C(C)=NCC3 [harmaline] | selectively inhibits NHE5 | – | –
